Results published in patent US11142533B2, “Macrocycles for use in treating disease” (TURNING POINT THERAPEUTICS, INC., priority 2019, dated 2021).
pIC50: −log10 of the molar value. ≈ marks a conversion by molar mass, not a printed value.

Experiments:
[1] = Liver microsomal stability; format: in vitro ADME; conditions: pH 7.4, 1 μM compound, 0.5 mg/mL liver microsome protein
Method: The test compound stock solution was prepared by weighing 1.07 mg and dissolving in 0.261 mL of DMSO to achieve the concentration of 10 mM. Working solution of the test compound was prepared by diluting stock solution using DMSO to yield the concentration of 300 μM.
The assay was carried out in 96-well microtiter plates. In each well, the reaction mixture (25 μL) contained the test compound at the final concentration of 1 μM, 0.5 mg/mL liver microsome protein, and 1 mM NADPH in 100 mM potassium phosphate, pH 7.4 buffer with 3.3 mM MgCl2. The mixtures were incubated in duplicate at 37° C. for 0, 15, 30 or 60 minutes, and 150 μL of quench solution (acetonitrile with 0.1% formic acid) with internal standard (bucetin for positive ESI mode) was added into each well of reaction to terminate the reaction. The plates were then sealed and centrifuged at 4° C. for 15 minutes at 4000 rpm. The resulting supernatant was transferred to fresh plates for LC-MS/MS analysis of the test compounds. Verapamil was used as the positive control to validate the assay system.
All samples were analyzed with LC-MS/MS using an AB Sciex API 4000 instrument, coupled to a Shimadzu LC-20AD LC Pump system. Analytical samples were separated using a Waters Atlantis T3 dC18 reverse phase HPLC column (20 mm×2.1 mm) at a flow rate of 0.5 mL/min. The mobile phase consisted of 0.1% formic acid in water (solvent A) and 0.1% formic acid in acetonitrile (solvent B).
The extent of metabolism was calculated based on the disappearance of the test compound, compared to its initial concentration. The initial rates of clearance of test compounds were calculated using linear regression plot of semi-log % remaining of compounds versus time. The elimination rate constant (equals to negative slope) of the linear regression plot was then used to determine t112 and the intrinsic clearance (CLInt) using the following formula: k=−slope t1/2=0.693/k CLint=k/Cprotein
Where Cprotein (mg/mL) is the microsomal protein concentration in the incubation system.

KM12 (TPM3-TRKA) = KM12 (TPM3-TRKA) (Homo sapiens, UniProt P04629); experiment: Cell proliferation assay (CellTiter-Glo)
Sequence of KM12 (TPM3-TRKA) (P04629 with tags, fused parts or gaps): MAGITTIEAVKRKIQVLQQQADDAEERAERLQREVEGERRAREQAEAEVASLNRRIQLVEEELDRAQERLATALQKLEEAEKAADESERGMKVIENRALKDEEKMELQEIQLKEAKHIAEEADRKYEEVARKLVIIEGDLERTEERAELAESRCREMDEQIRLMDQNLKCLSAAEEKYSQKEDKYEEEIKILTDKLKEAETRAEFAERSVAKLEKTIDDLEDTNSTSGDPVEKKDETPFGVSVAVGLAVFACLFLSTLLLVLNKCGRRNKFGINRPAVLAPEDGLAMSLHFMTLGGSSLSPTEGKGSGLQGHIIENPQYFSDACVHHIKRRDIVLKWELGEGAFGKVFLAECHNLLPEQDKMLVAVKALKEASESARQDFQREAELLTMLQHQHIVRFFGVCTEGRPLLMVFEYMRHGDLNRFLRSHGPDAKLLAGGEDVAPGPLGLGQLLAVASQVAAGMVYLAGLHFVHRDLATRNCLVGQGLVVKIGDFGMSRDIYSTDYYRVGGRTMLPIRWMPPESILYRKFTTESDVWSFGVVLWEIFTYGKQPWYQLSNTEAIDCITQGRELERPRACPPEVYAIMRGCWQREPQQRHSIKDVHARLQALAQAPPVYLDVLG

KG-1 cell (OP2-FGFR1) = KG-1 cell (OP2-FGFR1) (Homo sapiens, UniProt P11362); experiment: Cell proliferation assay (CellTiter-Glo)
Sequence of KG-1 cell (OP2-FGFR1) (P11362 456-822 limits assumed): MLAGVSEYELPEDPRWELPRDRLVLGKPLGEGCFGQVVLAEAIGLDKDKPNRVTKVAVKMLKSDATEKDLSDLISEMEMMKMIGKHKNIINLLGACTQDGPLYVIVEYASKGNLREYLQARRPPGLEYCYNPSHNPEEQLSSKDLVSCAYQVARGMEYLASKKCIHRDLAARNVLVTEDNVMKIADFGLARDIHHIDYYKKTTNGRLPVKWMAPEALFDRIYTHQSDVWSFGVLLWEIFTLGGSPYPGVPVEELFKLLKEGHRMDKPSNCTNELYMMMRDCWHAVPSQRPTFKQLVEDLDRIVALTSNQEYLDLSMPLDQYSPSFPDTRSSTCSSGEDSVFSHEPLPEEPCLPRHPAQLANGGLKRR

[2] = Mouse pharmacokinetic study; format: in vivo; conditions: single oral dose (dose level not given), plasma
Method: To prepare 1 L of the vehicle solution (0.5% CMC and 1.0% Tween 80), 10 g of Tween 80 was mixed with 985 mL of water into a 1 L bottle. The mixture was stirred until Tween 80 was completely dissolved. With continued stirring, 5 g of CMC was very slowly sprinkled into the solution. Stirring was continued until all CMC was dissolved, which might take several hr. The resulting vehicle solution was stored at 4° C.
The compound was suspended in the vehicle solution and the mice were orally administrated with a single dose of the compound at the selected dose level. The blood samples were collected according to the defined time table into tubes containing K2-EDTA, followed by gentle mixing to assure distribution of the anti-coagulant. Immediately after the blood sample was collected and mixed, it was placed on ice. The samples were then centrifuged at 4° C. for 10 minutes at 5,000 RPM. The plasma was harvested into pre-labeled tubes and stored at −80° C. until analyzed by LC-MS/MS.

[3] = Solubility test in phosphate buffer; format: physicochemical; conditions: aqueous buffer, thermodynamic from solid; phosphate buffer pH 7.4, room temperature
Method: Aliquot of 1.035 mL phosphate buffer (PB) (pH 7.4) was added into 2.07 mg of the test compound (for a 2 mg·mL^−1 upper limiting solubility determination) in a 1.5 mL tubes. The mixture was ultrasonicly treated for 10 min and rotated on rotator at room temperature for more than 8 hr. After rotation, the tube was ultrasonicly treated for 10 min and centrifuged at 13000 rpm for 15 min. 0.3 mL of the supernatant was transferred into a 0.6 mL tube and discarded after rotated for 5 min for rinsing, then about 0.6 mL of the residual supernatant was transferred into the rinsed tube and centrifuged again at 13000 rpm for 15 min. The supernatant after every centrifugation was appropriately diluted and transferred for LC-MS/MS analysis where a standard curve was constructed with 7 concentration levels (2, 4, 10, 20, 40, 100 and 200 μg mL^−1) and used for the quantitation of the analyte in PB.

[4] = female, mouse, liver microsomes

SMILES	microsomal CLint at 1 µM [1, 4]	microsomal CLint at 1 µM ([1]; female, rat, liver microsomes)	microsomal CLint at 1 µM ([1]; human, pooled liver microsomes)	pIC50 (KM12 (TPM3-TRKA))	pIC50 (KG-1 cell (OP2-FGFR1))	AUC [2]	Cmax [2]	Tmax [2]	solubility [3]
O=C1NCC2(CC2)COc2ccc(F)cc2CN2c3nc4c1cnn4cc3OC[C@H]2C(F)F [Compound 2, (16′S)-16′-(Difluoromethyl)-12′-fluoro-4′H,5′H,6′H,8′H,14′H,16′H,17′H-spiro[cyclopropane-1,7′-[1,19](metheno)[1,4]oxazino[3,4-j]pyrazolo[4,3-g][1,5,9,11]benzoxatriazacyclotetradecin]-4′-one]	25 µL/min/mg	3.5 µL/min/mg	8.8 µL/min/mg	> 9.70	8.42	14600 ng·h/mL	2510 ng/mL	2 h	2.6 µg/mL (≈ 5.66 µM)
CC1(C)COc2ccc(F)cc2CN2c3nc4c(cnn4cc3OC[C@H]2C(F)F)C(=O)N1 [Compound 1, (4S)-4-(Difluoromethyl)-8-fluoro-13,13-dimethyl-3,4,13,14-tetrahydro-6H-18,1-(metheno)[1,4]oxazino[3,4-i]pyrazolo[4,3-f][1,4,8,10]benzoxatriazacyclotridecin-15(12H)-one]	11 µL/min/mg	1.5 µL/min/mg	8.3 µL/min/mg	> 9.70	6.26	11900 ng·h/mL	1750 ng/mL	2 h	3.3 µg/mL (≈ 7.38 µM)
